Experimental findings from patent US20190274308A1, “METHOD FOR PROTECTING PLANTS FROM PESTS USING A PESTICIDE COMPOSITION WITH ADJUSTABLE PERSISTENCE AND DEGRADABILITY” (Flechsig Patent Company LLC, priority 2016, published 2019) are described below.

The data set is classed as physicochemical. The text has this:
A further characterizing parameter of the soil is the content of microorganisms, in particular bacteria, fungi and microfauna.
Tables 5 and 6 below indicate the degradation times of exemplary poly(alkyl)guanidines depending on various contents of microorganisms in the soil.
These determinations were obtained basically according to established methods, in particular as described in “Bodenbiologische Arbeitsmethoden”, 2nd revised and expanded edition, F. Schinner, E. Kandeler, R. Öhlinger, R. Margesin (eds.) (1993).
To determine the total bacterial count according to Trolldenier (1972), a soil suspension is applied onto a defined area of a slide and the dried soil film is stained with acridine orange. The bacterial count is determined in a plurality of counting fields under the fluorescence microscope and from this the total bacterial count of the soil sample is calculated.
The ergosterol of the soil fungi is saponified with KOH, extracted with n-hexane in the separating funnel, dried at 40° C. in the rotary evaporator and then dissolved in methanol. Detection is achieved by means of HPLC at 282 nm. The procedure is based on the method of Zelles et al. (1987) and was modified in a few points.
For the sake of simplicity calculation is performed using the dimensions of the dishes. At least 10 individuals per species should be measured. The resulting volume mean value can be equated numerically with the weight, as the specific mass of the microfauna is approximately 1 g cm^−3.
Take poly(hexamethylene)guanidine [C6 PHMG]: the “Difference days min/max degradation time, bact., fungi, microfauna” value is given as 30 days. Then poly(octamethylene)guanidine [C8 POMG], with 36 days.

poly(tetramethylene)guanidine [C4 PTMG]: the “Difference days min/max degradation time, bact., fungi, microfauna” value is reported as 22 days.
